{"source": "ChEMBL document CHEMBL1201862", "about": "“PubChem BioAssay data set” (2004)", "key": {"Phospholipase A2": {"target": "Phospholipase A2 (Homo sapiens, UniProt P04054)", "sequence (P04054 whole entry)": "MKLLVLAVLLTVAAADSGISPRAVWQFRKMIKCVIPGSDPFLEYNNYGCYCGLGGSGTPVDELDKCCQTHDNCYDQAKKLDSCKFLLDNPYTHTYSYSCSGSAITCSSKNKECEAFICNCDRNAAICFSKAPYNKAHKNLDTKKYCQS", "assay_type": "functional"}, "Streptococcus": {"test_system": "Streptococcus", "assay": "GAS UMAA2166 growth inhibition – luminescence, BacTiterGlo, counter-screen for streptokinase expression inhibitor project, dose response (AID 1915);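 note: potency for reduction of bacterial viability or growth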", "assay_type": "functional, organism-based"}, "[1]": {"target": "Mitochondrial peptide methionine sulfoxide reductase (Bos taurus, UniProt P54149)", "sequence (P54149 whole entry)": "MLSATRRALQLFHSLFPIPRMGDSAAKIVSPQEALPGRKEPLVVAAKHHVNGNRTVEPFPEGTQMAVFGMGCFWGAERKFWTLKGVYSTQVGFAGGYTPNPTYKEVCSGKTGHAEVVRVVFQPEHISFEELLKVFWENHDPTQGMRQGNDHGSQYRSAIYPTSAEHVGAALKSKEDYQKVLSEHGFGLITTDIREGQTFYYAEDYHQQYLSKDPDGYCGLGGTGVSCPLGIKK", "assay": "Absorbance-based biochemical high throughput dose response assay for activators of Methionine sulfoxide reductase A (MsrA).", "assay_type": "functional"}, "[2]": {"target": "Dual specificity tyrosine-phosphorylation-regulated kinase 1A (Rattus norvegicus, UniProt Q63470)", "assay_type": "biochemical, Homo sapiens"}, "[3]": {"assay": "Intein inhibitors as potential Tuberculosis drugs, a cytotoxicity screen. [Related pubchem assays (depositor defined):AID2221, AID2223, AID434968, AID435010, AID449749, AID449750, AID489010]", "assay_type": "functional"}, "[4]": {"target": "Transitional endoplasmic reticulum ATPase (Homo sapiens, UniProt P55072, C522A)", "sequence (P55072 2-806 C522A limits assumed)": "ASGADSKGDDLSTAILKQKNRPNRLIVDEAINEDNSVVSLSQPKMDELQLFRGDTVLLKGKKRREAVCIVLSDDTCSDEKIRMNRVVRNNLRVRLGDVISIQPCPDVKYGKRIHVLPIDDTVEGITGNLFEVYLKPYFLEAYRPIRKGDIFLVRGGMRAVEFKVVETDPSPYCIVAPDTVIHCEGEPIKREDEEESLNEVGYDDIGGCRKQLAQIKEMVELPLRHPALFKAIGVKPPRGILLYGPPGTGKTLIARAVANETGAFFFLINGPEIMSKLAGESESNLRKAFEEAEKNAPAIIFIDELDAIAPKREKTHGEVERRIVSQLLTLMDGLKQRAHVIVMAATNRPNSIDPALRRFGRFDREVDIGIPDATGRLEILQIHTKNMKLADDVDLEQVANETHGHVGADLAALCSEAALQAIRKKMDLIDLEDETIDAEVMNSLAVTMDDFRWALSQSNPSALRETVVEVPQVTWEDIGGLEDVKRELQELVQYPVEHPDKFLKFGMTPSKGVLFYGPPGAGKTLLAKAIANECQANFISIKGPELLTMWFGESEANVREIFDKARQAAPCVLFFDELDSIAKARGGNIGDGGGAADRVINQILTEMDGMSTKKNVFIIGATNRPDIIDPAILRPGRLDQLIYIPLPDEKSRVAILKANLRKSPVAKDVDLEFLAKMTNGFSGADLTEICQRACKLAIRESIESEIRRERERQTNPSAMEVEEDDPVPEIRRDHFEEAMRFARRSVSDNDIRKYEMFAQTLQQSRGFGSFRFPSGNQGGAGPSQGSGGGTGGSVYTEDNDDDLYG", "assay": "C522A mutant p97 ATPase inhibitors, dose response, counter-screen for p97 inhibitor project, biochemical, luminescence (AID 1544)"}, "[5]": {"target": "T1, RNA-editing ligase 1, mitochondrial (Trypanosoma brucei brucei, UniProt P86926)", "T1 sequence (P86926 whole entry)": "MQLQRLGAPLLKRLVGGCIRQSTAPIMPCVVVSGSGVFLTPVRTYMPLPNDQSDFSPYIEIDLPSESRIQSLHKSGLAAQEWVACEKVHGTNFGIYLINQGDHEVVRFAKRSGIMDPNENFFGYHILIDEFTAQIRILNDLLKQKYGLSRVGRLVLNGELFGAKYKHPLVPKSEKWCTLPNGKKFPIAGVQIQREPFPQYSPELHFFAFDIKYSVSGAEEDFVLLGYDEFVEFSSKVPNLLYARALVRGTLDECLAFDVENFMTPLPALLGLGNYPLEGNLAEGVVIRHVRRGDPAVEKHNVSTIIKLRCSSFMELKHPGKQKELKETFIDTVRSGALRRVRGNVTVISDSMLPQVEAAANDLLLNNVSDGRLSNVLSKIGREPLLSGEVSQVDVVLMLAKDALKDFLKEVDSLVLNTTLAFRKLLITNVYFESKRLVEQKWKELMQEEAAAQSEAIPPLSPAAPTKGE", "assay": "inhibition of trypanosome RNA editing ligase – biochemical, fluorescence, Trypanosoma brucei, dose response (AID 1117295)", "assay_type": "functional"}, "[6]": {"target": "5-hydroxytryptamine receptor 5A (Homo sapiens, UniProt P47898)", "sequence (P47898 whole entry)": "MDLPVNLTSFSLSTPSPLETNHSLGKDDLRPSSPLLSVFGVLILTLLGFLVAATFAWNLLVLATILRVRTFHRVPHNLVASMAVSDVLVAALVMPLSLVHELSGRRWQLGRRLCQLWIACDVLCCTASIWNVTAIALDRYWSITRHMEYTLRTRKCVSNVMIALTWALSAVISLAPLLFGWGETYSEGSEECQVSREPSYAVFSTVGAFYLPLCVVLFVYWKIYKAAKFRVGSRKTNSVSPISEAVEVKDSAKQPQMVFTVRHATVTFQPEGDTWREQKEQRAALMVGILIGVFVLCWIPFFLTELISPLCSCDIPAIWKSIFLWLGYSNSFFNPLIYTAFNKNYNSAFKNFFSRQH", "assay": "Counterscreen for agonists of OPRM1-OPRD1 heterodimerization: luminescence-based cell-based high throughput dose response assay to identify agonists of 5-hydroxytryptamine (serotonin) 5A receptor (HTR5A). [Related pubchem assays (depositor defined):AID504326, AID504355, AID504692, AID504904, AID504905]", "assay_type": "functional"}, "cells": {"assay": "cells", "assay_type": "functional, cell-based", "conditions": "HEK-CNG"}, "Nonstructural protein 1": {"target": "Nonstructural protein 1 (Influenza A virus, UniProt Q194T2)", "sequence (Q194T2 whole entry)": "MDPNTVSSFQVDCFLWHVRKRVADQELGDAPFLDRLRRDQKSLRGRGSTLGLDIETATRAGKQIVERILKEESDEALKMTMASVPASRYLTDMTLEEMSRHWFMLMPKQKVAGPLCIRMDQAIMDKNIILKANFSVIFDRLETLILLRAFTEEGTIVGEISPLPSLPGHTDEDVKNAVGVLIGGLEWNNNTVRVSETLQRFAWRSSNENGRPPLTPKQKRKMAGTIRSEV", "assay_type": "functional, Influenza A virus (A/California/07/2009(H1N1))"}, "[7]": {"target": "T2, Endoribonuclease toxin MazF (Escherichia coli K-12, UniProt P0AE70)", "T2 sequence (P0AE70 whole entry)": "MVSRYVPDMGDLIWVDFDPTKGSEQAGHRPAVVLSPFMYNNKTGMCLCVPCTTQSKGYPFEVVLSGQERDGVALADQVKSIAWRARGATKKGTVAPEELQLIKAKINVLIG", "assay": "SAR analysis of small molecule activators of the MazEF TA System via a fluorescence-based single-stranded RNase assay counterscreen. [Related pubchem assays (depositor defined):AID504720, AID504743]", "assay_type": "functional"}, "Caspase-6": {"target": "T3, Caspase-6 (Homo sapiens, UniProt P55212)", "T3 sequence (P55212 whole entry)": "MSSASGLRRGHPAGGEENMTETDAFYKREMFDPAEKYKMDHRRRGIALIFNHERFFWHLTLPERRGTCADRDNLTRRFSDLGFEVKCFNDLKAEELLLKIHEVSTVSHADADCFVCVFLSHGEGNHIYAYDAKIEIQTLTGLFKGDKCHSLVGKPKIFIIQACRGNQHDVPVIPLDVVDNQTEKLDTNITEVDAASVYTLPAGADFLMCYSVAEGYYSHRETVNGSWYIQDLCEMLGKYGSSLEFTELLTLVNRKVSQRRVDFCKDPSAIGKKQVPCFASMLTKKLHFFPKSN", "assay": "inhibition of CASP6 peptide cleavage – biochemical, VEID-R110 fluorescence, cherry-pick, dose response (AID 720632)"}, "Caspase-7": {"target": "Caspase-7 (Homo sapiens, UniProt P55210)", "sequence (P55210 24-198 limits assumed)": "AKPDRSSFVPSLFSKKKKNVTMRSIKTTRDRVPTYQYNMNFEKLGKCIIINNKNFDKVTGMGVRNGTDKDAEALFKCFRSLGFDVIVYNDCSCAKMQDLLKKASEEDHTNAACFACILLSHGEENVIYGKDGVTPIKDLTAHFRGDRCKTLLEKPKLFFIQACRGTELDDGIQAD", "sequence (P55210 207-303 limits assumed)": "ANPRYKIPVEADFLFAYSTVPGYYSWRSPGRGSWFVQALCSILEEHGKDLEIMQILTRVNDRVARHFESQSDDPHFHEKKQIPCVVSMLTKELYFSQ", "assay": "caspase-7 enzyme inhibition, selectivity check – biochemical, DEVD-R110 fluorescence, cherry-pick, selectivity assay for caspase-6 inhibitor project, dose response (AID 743295)", "assay_type": "functional"}, "[8]": {"target": "T4, Sentrin-specific protease 7 (Homo sapiens, UniProt Q9BQF6)", "T4 sequence (Q9BQF6 whole entry)": "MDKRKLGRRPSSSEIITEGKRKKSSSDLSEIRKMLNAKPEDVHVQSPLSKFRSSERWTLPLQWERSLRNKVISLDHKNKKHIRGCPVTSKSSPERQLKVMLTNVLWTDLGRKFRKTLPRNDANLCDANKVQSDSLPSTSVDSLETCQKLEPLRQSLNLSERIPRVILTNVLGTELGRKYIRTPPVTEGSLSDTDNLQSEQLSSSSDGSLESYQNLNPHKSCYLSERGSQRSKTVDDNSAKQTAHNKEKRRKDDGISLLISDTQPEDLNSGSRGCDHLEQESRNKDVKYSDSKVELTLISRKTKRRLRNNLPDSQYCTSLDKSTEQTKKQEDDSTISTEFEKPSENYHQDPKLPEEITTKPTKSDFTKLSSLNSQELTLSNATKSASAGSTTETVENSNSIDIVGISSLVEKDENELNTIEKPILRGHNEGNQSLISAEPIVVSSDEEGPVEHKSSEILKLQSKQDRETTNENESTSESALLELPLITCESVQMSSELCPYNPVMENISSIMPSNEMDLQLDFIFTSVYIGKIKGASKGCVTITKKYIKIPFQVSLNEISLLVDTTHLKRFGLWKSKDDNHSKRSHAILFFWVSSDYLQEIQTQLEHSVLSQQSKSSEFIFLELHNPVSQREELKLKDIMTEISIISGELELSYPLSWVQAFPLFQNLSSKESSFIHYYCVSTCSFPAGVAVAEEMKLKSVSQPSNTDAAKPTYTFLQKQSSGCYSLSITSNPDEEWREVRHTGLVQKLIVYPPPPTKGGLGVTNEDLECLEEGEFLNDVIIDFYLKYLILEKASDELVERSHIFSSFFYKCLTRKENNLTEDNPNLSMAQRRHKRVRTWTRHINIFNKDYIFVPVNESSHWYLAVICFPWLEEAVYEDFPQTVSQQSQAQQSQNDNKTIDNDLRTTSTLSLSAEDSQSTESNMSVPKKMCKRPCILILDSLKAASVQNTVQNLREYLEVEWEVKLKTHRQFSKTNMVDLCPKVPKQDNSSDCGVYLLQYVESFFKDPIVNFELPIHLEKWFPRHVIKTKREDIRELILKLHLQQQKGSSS", "assay_type": "functional"}}, "note": "The source made the active and inactive calls.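 Throughout, for CC50: cells exposed to compound for 72 hours before luminescence readout.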"}
{"smiles": "Cc1nc2c(=O)n(C)c(=O)nc-2n(C)n1", "values": [{"measurement": "IC50", "setting": "Phospholipase A2", "result": "> 80 µM (inactive)"}, {"measurement": "EC50", "setting": "Streptococcus", "result": "9.31 µM (active)"}, {"measurement": "EC50", "setting": "[1]", "result": "63.7 µM (inactive)"}, {"measurement": "AC50", "setting": "[2]", "result": "0.215 µM (active)"}, {"measurement": "CC50", "setting": "[3]", "result": "7.94 µM (active)"}, {"measurement": "IC50", "setting": "[4]", "result": "> 50 µM (not active)"}, {"measurement": "IC50", "setting": "[5]", "result": "0.411 µM (active)"}]}
{"smiles": "O=C1C=C(c2c(O)ccc3ccccc23)c2ccccc2C1=O", "values": [{"measurement": "EC50", "setting": "[6]", "result": "> 92.4 µM (inactive)"}, {"measurement": "EC50", "setting": "cells", "result": "> 29.9 µM (inactive)"}, {"measurement": "IC50", "setting": "Nonstructural protein 1", "result": "46.5 µM (active)"}, {"measurement": "EC50", "setting": "[7]", "result": "> 99 µM (inactive)"}]}
{"smiles": "Oc1nc(Nc2ccccc2Cl)cc2ccccc12", "values": [{"measurement": "AC50", "setting": "Caspase-6", "result": "3.75 µM (active)"}, {"measurement": "AC50", "setting": "Caspase-7", "result": "12.2 µM (active)"}, {"measurement": "IC50", "setting": "[8]", "result": "4.7 µM (active)"}]}
